Measured values reported in article PMC10791743, “Selective CK1α degraders exert antiproliferative activity against a broad range of human cancer cell lines” (Nature Communications, 2024).

How the values were obtained:
Assay in all cases: cells
Parameters in all cases: Oncolines panel cell viability, ATPlite 1Step luminescence, duplicate 9-point dose response, IC50
CAL 27 = settings: Homo sapiens, CAL-27; 72 h viability; read-out: SJ3149
Protocol: (§1) Cell viability assays were performed as previously described. In brief, cells were seeded in a 384-well plate at an optimized density. The starting cell number was determined after 24 h incubation by adding ATPlite 1Step (Perkin Elmer, Groningen, the Netherlands) to each well and recording luminescence on an Envision multimode reader (Perkin Elmer, Waltham, MA). After the addition of a duplicate 9-point dilution series of SJ3149, cells were incubated for another 72 h, followed by cell counting using ATPlite 1Step. The dilution series ranged from 3.2 to 31,600 nM or was diluted 100-fold for the most sensitive cell lines to ideally capture the complete dose–response curve. Percentage viability was determined at each compound concentration by relating the observed signal to a vehicle-treated control, that is, medium containing 0.4% (v/v) DMSO. Compound IC50 values were calculated by fitting a 4-parameter logistic curve to the percentage viability values using IDBS XLfit5 (IDBS, Guildford, UK). The IC50 was limited to the maximum tested compound concentration when the IC50 exceeded the maximum tested concentration. […] To evaluate the compound’s effect and potential therapeutic application across a diverse range of human cancers, we profiled SJ3149 in Oncolines® panel consisting of 115 human cancer cell lines, of which 86 were solid tumor and 29 hematologic cell lines, including MOLM-13. Effect on cell viability was monitored using ATPLite™ (Perkin Elmer), which measures intracellular ATP content as an indirect readout of cell number, like CellTiter Glo.

PL-21 = settings: PL-21; 72 h viability; read-out: SJ3149
Protocol: as §1

A-427 = settings: Homo sapiens, A-427; 72 h viability; read-out: SJ3149
Protocol: as §1

NCI-H661 = settings: Homo sapiens, NCI-H661; 72 h viability; read-out: SJ3149
Protocol: as §1

AsPC-1 = settings: Homo sapiens, ASPC1; 72 h viability; read-out: SJ3149
Protocol: as §1

U-87 MG = settings: Homo sapiens, U-87 MG; 72 h viability; read-out: SJ3149
Protocol: as §1

CCF-STTG1 = settings: Homo sapiens, CCF-STTG1; 72 h viability; read-out: SJ3149
Protocol: as §1

HT = settings: Homo sapiens, HT; 72 h viability; read-out: SJ3149
Protocol: as §1

SW620 = settings: Homo sapiens, SW-620; 72 h viability; read-out: SJ3149
Protocol: as §1

DLD-1 = settings: Homo sapiens, DLD-1; 72 h viability; read-out: SJ3149
Protocol: as §1

Hs 746T = settings: Homo sapiens, Hs746T; 72 h viability; read-out: SJ3149
Protocol: as §1

SW480 = settings: Homo sapiens, SW480; 72 h viability; read-out: SJ3149
Protocol: as §1

AP-1060 = settings: 72 h viability; read-out: SJ3149
Protocol: as §1

ES-2 = settings: Homo sapiens, ES-2; 72 h viability; read-out: SJ3149
Protocol: as §1

HCT 116 = settings: Homo sapiens, HCT-116; 72 h viability; read-out: SJ3149
Protocol: as §1

Daoy = settings: Homo sapiens, Daoy; 72 h viability; read-out: SJ3149
Protocol: as §1

G-361 = settings: Homo sapiens, G-361; 72 h viability; read-out: SJ3149
Protocol: as §1

SNU-5 = settings: Homo sapiens, SNU-5; 72 h viability; read-out: SJ3149
Protocol: as §1

COLO 829 = settings: Homo sapiens, COLO-829; 72 h viability; read-out: SJ3149
Protocol: as §1

J82 = settings: Homo sapiens, J82; 72 h viability; read-out: SJ3149
Protocol: as §1

`O=C1CCC(N2Cc3cc(Nc4noc5ccccc45)ccc3C2=O)C(=O)N1` (centres unmarked) [SJ3149] was tested, and the IC50 (CAL 27) was greater than 31.6 µM, the IC50 (PL-21) was greater than 31.6 µM and the IC50 (A-427) was greater than 31.6 µM. It also gave an IC50 (NCI-H661) greater than 31.6 µM, an IC50 (AsPC-1) greater than 31.6 µM and an IC50 (U-87 MG) greater than 31.6 µM. For the same compound, the IC50 (CCF-STTG1) was greater than 31.6 µM, the IC50 (HT) was greater than 31.6 µM and the IC50 (SW620) was greater than 31.6 µM. For the same compound, the IC50 (DLD-1) was greater than 31.6 µM, the IC50 (Hs 746T) was greater than 31.6 µM and the IC50 (SW480) was greater than 31.6 µM. The IC50 (AP-1060) was 0.00135 µM, the IC50 (ES-2) was greater than 31.6 µM and the IC50 (HCT 116) was greater than 31.6 µM. The IC50 (Daoy) was greater than 31.6 µM, the IC50 (G-361) was greater than 31.6 µM and the IC50 (SNU-5) was greater than 31.6 µM. It also gave an IC50 (COLO 829) greater than 31.6 µM and an IC50 (J82) greater than 31.6 µM.
